Test results as given in US20240217917A1, “PHOTOLYTICALLY DEGRADABLE COMPOUNDS AND METHODS” (The University of Stavanger, priority 2021, published 2024).
Values after ≈ are worked out from the molar mass of the structure shown.

Key:
[1] = Photolysis of compounds 1-5, 125 W medium pressure mercury vapour lamp, conversion by 1H-NMR; type: physicochemical; conditions: for stability under irradiation at lower pH: pH values lower than 11
Method: Following the procedure by Wan and Muralidharan (Wan, P.; Muralidharan, S. J. Am. Chem. Soc. 1988, 110 (13), 4336-4345) aminol 1 (compound 1) was photolysed in acetonitrile and water (7:3, v:v) at the appropriate pH using a 125 W medium pressure mercury vapour lamp. Seven experiments were performed from pH 13 to pH 1 with a concentration of around 0.68 mM, and each reaction was irradiated for. 2 hours Following liquid-liquid extraction with DCM, all reaction mixtures were analysed with ^1H-NMR spectroscopy. Initially it was expected that a mechanism similar to the nitrophenethyl alcohols (Scheme 3) would occur and the expected products would therefore be N-methyl-p-nitroaniline, phenylacetaldehyde, 2-(p-nitroaniline)acetaldehyde, and toluene
Because of this, it seems likely that following excitation to the singlet state and intersystem crossing (ISC) to the triplet state, a proton is abstracted and initiates decomposition. Two products were identified from the NMR data; p-nitroaniline and benzaldehyde. This means that there are two carbon atoms in the starting material unaccounted for (Scheme 13). A reasonable hypothesis is that they remain in the aqueous phase during extraction as formaldehyde or glyoxal.

[2] = as above; type: physicochemical; conditions: same conditions
UV-vis spectra = type: physicochemical; conditions: ethanol as solvent
Method: As illustrated in the UV-vis spectra, where the nitro group is positioned greatly influences the λmax. With nitro substitution on the aniline these values are around 380 and 400 nm, whereas for the two other compounds a hypsochromic shift is observed all the way down to 248 nm.
UV-vis spectra were obtained on an Agilent 8453 single-beam UV-vis spectrophotometer with a deuterium-discharge lamp for the UV range and a tungsten lamp for the visible wavelength range. Samples were analysed in an Agilent open-top UV quartz cell (10 mm, 3.0 mL) with ethanol as solvent. Wavelengths are reported in nm and molar attenuation coefficients in M^−1cm^−1.

S. Epidermidis [3] = test: Minimum inhibitory concentration (MIC) screen, OD 600 nm; type: cell-based; design: key to Minimum inhibitory concentration, S. Epidermidis: I = inactive, i.e. below the activity threshold; conditions: screened at 100-1.6 μM
Method: (§1) With compounds 6-9 and the crude degradation mixtures in hand, the minimum inhibitory concentration (MIC) was screened against a number of gram-positive and gram-negative bacteria, including E. faecalis, E. coli, P. aeruginosa, S. aureus, S. agalactiae, and S. epidermidis. To determine the activity, optical density (OD) at 600 nm was measured to estimate the concentration of bacteria at concentrations from 1.6 -100 μM. Values below 0.05 are counted as active and indicates inhibition of growth, illustrated by plotting OD against the concentration for compounds 6-9, (FIG. 9). […] Black stapled lines at 0.05 for MIC and 30% for biofilm formation indicate activity threshold values. […] No activity was observed against the gram-negative bacteria (Table 3).

S. Agalactiae = test: as above; type: cell-based; design: key to Minimum inhibitory concentration, S. Agalactiae: I = inactive, i.e. below the activity threshold; conditions: screened at 100-1.6 μM; for MIC: Streptococcus agalactiae
Method: as §1

[4] = Photolysis of compounds 6-9, 6 W low-pressure mercury vapor lamp, conversion by 1H-NMR; type: physicochemical; conditions: pH 13; acetonitrile/NaOH solution 30/70; 254 nm low-pressure lamp; 24 hours
Method: Aminol 6-9 (compounds 6-9) were dissolved in acetonitrile and diluted with a sodium hydroxide solution at pH 13 (30/70, V/V). Since all the compounds have strong absorption bands around 250 nm (FIG. 8), a 6 W low-pressure mercury vapor lamp was chosen as the irradiation source, since it emits mainly at 254 nm. All reactions were carried out in a 75 mL gas inlet flask (˜0.7 mM) under a constant stream of nitrogen with a quartz well cold finger for 24 hours.
Following aqueous workup, the reaction mixtures were analysed with ^1H-NMR spectroscopy. […] The photodegradation reaction for compound 6 can be seen in Scheme 21. Additionally, the two doublets at 7.47 and 8.13 ppm (Hc and Ha) have disappeared into a complicated multiplet, and the aliphatic protons around 3 ppm are no longer visible (FIG. 6).

S. Epidermidis [5] = test: Biofilm inhibition; type: cell-based; conditions: threshold 30% biofilm formation
Method: as §1

[6] = Solubility observed as precipitation in the MIC test; type: physicochemical; conditions: higher concentrations in the S. agalactiae MIC test
Method: as §1

S. Aureus = test: Minimum inhibitory concentration (MIC) screen, OD 600 nm; type: cell-based; design: key to Minimum inhibitory concentration, S. Aureus: I = inactive, i.e. below the activity threshold; conditions: screened at 100-1.6 μM; for MIC: Staphylococcus aureus
Method: as §1

[7] = pH 11, 2 hours irradiation, acetonitrile and water (7:3), medium pressure mercury lamp
[8] = pH 13, 2 hours irradiation, acetonitrile and water (7:3), medium pressure mercury lamp

| SMILES | conversion after photolysis [1, 7] | conversion after photolysis [1, 8] | E (UV-vis spectra) | λmax (UV-vis spectra) | Minimum inhibitory concentration, S. Epidermidis (S. Epidermidis [3]) | MIC (S. Agalactiae) | also measured |
| --- | --- | --- | --- | --- | --- | --- | --- |
| O=[N+]([O-])c1ccc(CC(O)CNc2cc(Cl)c(OC(F)(F)C(F)C(F)(F)F)cc2Cl)cc1 (centres unmarked) [Compound 6] | – | – | – | – | I | 6.3 µM (≈ 3.2 µg/mL) | photodegradation [4]: complete conversion; biofilm inhibition for S. epidermidis (S. Epidermidis [5]): 12.5 µM; solubility [6]: limited solubility; Minimum inhibitory concentration, S. Aureus (S. Aureus): I |
| O=[N+]([O-])c1ccc(F)c(CC(O)CNc2cc(Cl)c(F)c(Cl)c2F)c1F (centres unmarked) [Compound 7, 1-((3,5-Dichloro-2,4-difluorophenyl)amino)-3-(2,6-difluoro-3-nitrophenyl)propan-2-ol] | – | – | – | – | I | – | Minimum inhibitory concentration, S. Agalactiae (S. Agalactiae): I; MIC (S. Aureus): 50 µM (≈ 20.7 µg/mL) |
| O=[N+]([O-])c1ccc(F)c(CC(O)CNc2cc(Cl)c(OC(F)(F)C(F)C(F)(F)F)cc2Cl)c1F (centres unmarked) [Compound 8, 1-((2,5-Dichloro-4-(1,1,2,3,3,3-hexafluoropropoxy)phenyl)amino)-3-(2,6-difluoro-3-nitrophenyl)propan-2-ol] | – | – | – | – | I | 6.3 µM (≈ 3.42 µg/mL) | conversion after photolysis [4]: 56%; photodegradation [4]: complete degradation was not achieved; biofilm inhibition for S. epidermidis (S. Epidermidis [5]): 25 µM; solubility [6]: limited solubility; Minimum inhibitory concentration, S. Aureus (S. Aureus): I |
| O=[N+]([O-])c1ccc(F)c(CC(O)CNc2cc(Cl)cc(Cl)c2F)c1F (centres unmarked) [Compound 9, 1-((3,5-Dichloro-2-fluorophenyl)amino)-3-(2,6-difluoro-3-nitrophenyl)propan-2-ol] | – | – | – | – | – | 50 µM (≈ 19.8 µg/mL) | MIC (S. Epidermidis [3]; Staphylococcus epidermidis): 50 µM (≈ 19.8 µg/mL); MIC (S. Aureus): 50 µM (≈ 19.8 µg/mL) |

Continued, in another order:

| conversion after photolysis [1, 7] | conversion after photolysis [1, 8] | E (UV-vis spectra) | λmax (UV-vis spectra) | SMILES | Minimum inhibitory concentration, S. Epidermidis (S. Epidermidis [3]) | MIC (S. Agalactiae) | also measured |
| --- | --- | --- | --- | --- | --- | --- | --- |
| 100% | 100% | 1740.0 M⁻¹ cm⁻¹ | 384 nm | O=[N+]([O-])c1ccc(NCC(O)Cc2ccccc2)cc1 (centres unmarked) [Compound 1] | – | – | conversion after photolysis ([1]; pH 5, 2 hours irradiation): stops completely; time to full decomposition ([1]; pH 7, extrapolated from conversion after 2 hours): ca. 6 hours; conversion in reference experiments in the dark [2]: no conversion |
| 17% | 17% | 1331.3 M⁻¹ cm⁻¹ | 400 nm | O=[N+]([O-])c1cccc(NCC(O)Cc2ccccc2)c1 (centres unmarked) [Compound 2] | – | – | stability under irradiation at lower pH [1]: remained stable |
| – | 40% | 15066.6 M⁻¹ cm⁻¹ | 248 nm | O=[N+]([O-])c1ccc(CC(O)CNc2ccccc2)cc1 (centres unmarked) [Compound 3] | – | – | – |
| – | 56% | 17018.7 M⁻¹ cm⁻¹ | 248 nm | O=[N+]([O-])c1cccc(CC(O)CNc2ccccc2)c1 (centres unmarked) [Compound 4] | – | – | – |
| 68% | 100% | 17263.9 M⁻¹ cm⁻¹ | 382 nm | O=C(NCC(O)CNc1ccc([N+](=O)[O-])cc1)C(Cl)Cl (centres unmarked) [Compound 5] | – | – | conversion after photolysis ([1]; pH 11, 2 hours irradiation, acetonitrile and water (7:3), medium pressure mercury lamp, listed as compound resembling chloramphenicol): 60%; conversion after photolysis ([1]; pH 13): Full conversion; stability under irradiation at lower pH [1]: remained stable |
